Data taken from US20240190883A1, “KRAS PROTEIN DEGRADERS, PHARMACEUTICAL COMPOSITIONS THEREOF, AND THEIR THERAPEUTIC APPLICATIONS” (BioTheryX, Inc., priority 2021, published 2024).

Legend:
Assay type in all cases: cell-based
Lovo (G13D) cells = assay: Cell viability assay (CELLTITER-GLO), Lovo cells; details: Homo sapiens, 72 h, 3 days incubation, 2.5% fetal bovine serum, read-out: Inhibition of Cancerous Cells IC50 (μM) Lovo (G13D)
Method: (§1) H358, H23, SW48, and AsPC-1 cells were cultured in RPMI 1640 media supplemented with 10% fetal bovine serum, streptomycin, and penicillin. Lovo and SW480 cells were cultured in DMEM media supplemented with 10% fetal bovine serum, streptomycin, and penicillin. The cell lines were plated in their respective medium supplemented with 2.5% fetal bovine serum, streptomycin, and penicillin. All cell lines were plated in white walled 96-well plates at 2,000 cells/well or 384-well plates at 500 cells/well, except Lovo, which were plated at 4,000 or 1,000 cells/well, respectively. The cells were incubated in DMSO (control) or a compound for 3 days at 37° C. under 5% C02. A CELLTITER-GLO® reagent (100 μL) was then added to each well. After a 10 min incubation with shaking, luminescence was measured using an ENVISION® multimode plate reader. IC50 values are summarized in Table 1 and percentages of inhibition are summarized in Table 2, where compound T1 is 2-(4-(2-methyl-3,5-diphenylpyrazolo[1,5-a]pyrimidin-7-yl)piperazin-1-yl)ethan-1-ol.

SW480 (G12V) cells = assay: Cell viability assay (CELLTITER-GLO), SW480 cells; details: Homo sapiens, 72 h, 3 days incubation, 2.5% fetal bovine serum, read-out: Inhibition of Cancerous Cells IC50 (μM) SW480 (G12V)
Method: as §1

SW48 (wt) cells = assay: Cell viability assay (CELLTITER-GLO), SW48 cells; details: Homo sapiens, 72 h, 3 days incubation, 2.5% fetal bovine serum, read-out: Inhibition of Cancerous Cells IC50 (μM) SW48 (wt)
Method: as §1

H23 cells = assay: Cell viability assay (CELLTITER-GLO), H23 cells; details: Homo sapiens, NCI-H23, 72 h, 3 days incubation, 2.5% fetal bovine serum, read-out: Inhibition of Cancerous Cells IC50 (μM) H23
Method: as §1

H358 (G12C) cells = assay: Cell viability assay (CELLTITER-GLO), H358 cells; details: Homo sapiens, NCI-H358, 72 h, 3 days incubation, 2.5% fetal bovine serum, read-out: Inhibition of Cancerous Cells IC50 (μM) H358 (G12C)
Method: as §1

KRAS protein [1] = biological target: T1, KRAS protein (Homo sapiens, UniProt P01116, G13D); assay: HIBIT degradation assay, H647 cells; details: 24 h, HiBiT signal normalized to CTG signal; for Effect on KRAS Protein Degradation, H647, 3 μM: compound at 3 μM; for Effect on KRAS Protein Degradation, H647, 5 μM: compound at 5 μM
T1 construct: engineered to express a Hobbit-tagged endogenous KRAS protein; endogenous in cells; host or cells: H647, endogenous KRAS locus engineered with a HiBiT tag
Method: (§2) HEK293, MIA PaCa-2, AsPc-1, SW620, and H647 cells were engineered to express a […] endogenous KRAS protein. The HEK293 and MIA PaCa-2 cells were cultured in DMEM media supplemented with 10% fetal bovine serum, streptomycin, and penicillin. The AsPc-1, SW620, and H647 were cultured in RPMI media supplemented with 10% fetal bovine serum, streptomycin, and penicillin. The cells were seeded in white walled 96-well plates at 20,000 cells/well in 100 μL culture media in duplicate plates. After incubated at 37° C. under 5% CO2 overnight, the cells were treated with DMSO (control) or a compound, followed by the addition of 100 μL culture media to each well. After the cells were incubated for 24 h at 37° C. under 5% C02, 150 μL media were removed from each well and 50 μL NANOGLO-LGBIT lytic reagent were added to each well, and 50 μL CELLTITER-GLO (CTG) reagent was added to the duplicate plate. Following a 10-minute incubation with shaking, luminescence was measured using a Perkin Elmer ENVISION multimode plate reader. HiBiT signal was normalized to CTG signal. The results are summarized in Table 3, where “A” represents a percentage degradation value of no less than 50%; “B” represents a percentage degradation value of less than 50% and no less than 25%; “C” represents a percentage degradation value of less than 25% and no less than 10%; and “D” represents a percentage degradation value of less than 10%.

KRAS protein [2] = biological target: T2, KRAS protein (Homo sapiens, UniProt P01116); assay: HIBIT degradation assay, HEK293 cells; details: 24 h, HiBiT signal normalized to CTG signal; for Effect on KRAS Protein Degradation, HEK293, 3 μM: compound at 3 μM; for Effect on KRAS Protein Degradation, HEK293, 5 μM: compound at 5 μM
T2 construct: engineered to express a Hobbit-tagged endogenous KRAS protein; endogenous in cells; host or cells: HEK293, endogenous KRAS locus engineered with a HiBiT tag
Method: as §2

Molm-13 cells = assay: Cell viability assay, inhibition of Molm-13 cells; details: Homo sapiens; for inhibition at 1 µM: compound at 1 μM; for inhibition at 3 µM: compound at 3 μM
Method: [Worded in the source for another cell line; this cell line is reported under the same test.] as §1

KRAS protein [3] = biological target: T3, KRAS protein (Homo sapiens, UniProt P01116, G12D); assay: HIBIT degradation assay, AsPC-1 cells; details: 24 h, HiBiT signal normalized to CTG signal; for Effect on KRAS Protein Degradation, AsPC-1, 3 μM: compound at 3 μM; for Effect on KRAS Protein Degradation, AsPC-1, 5 μM: compound at 5 μM
T3 construct: engineered to express a Hobbit-tagged endogenous KRAS protein; endogenous in cells; host or cells: AsPC-1, endogenous KRAS locus engineered with a HiBiT tag
Method: as §2

T3 sequence (P01116 1-188 isoform P01116-2 G12D): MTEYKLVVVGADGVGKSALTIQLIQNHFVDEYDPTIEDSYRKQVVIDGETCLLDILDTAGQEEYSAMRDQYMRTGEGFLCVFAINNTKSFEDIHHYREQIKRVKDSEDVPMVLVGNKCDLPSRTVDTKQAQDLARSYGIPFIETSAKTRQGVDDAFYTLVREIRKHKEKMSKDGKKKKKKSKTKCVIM
T2 sequence (P01116 1-188 isoform P01116-2): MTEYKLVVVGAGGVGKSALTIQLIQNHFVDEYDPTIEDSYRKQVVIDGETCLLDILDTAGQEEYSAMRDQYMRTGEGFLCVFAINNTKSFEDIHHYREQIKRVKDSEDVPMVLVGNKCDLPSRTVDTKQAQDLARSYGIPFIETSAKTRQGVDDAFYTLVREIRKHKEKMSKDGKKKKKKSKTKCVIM
T1 sequence (P01116 1-185 isoform P01116-2 G13D limits assumed): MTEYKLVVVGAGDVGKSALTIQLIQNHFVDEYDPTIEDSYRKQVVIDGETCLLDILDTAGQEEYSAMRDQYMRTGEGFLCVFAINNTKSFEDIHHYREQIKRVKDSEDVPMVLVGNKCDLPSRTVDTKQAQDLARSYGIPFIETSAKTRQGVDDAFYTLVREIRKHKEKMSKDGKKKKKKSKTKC

SMILES	IC50 (Lovo (G13D) cells) [µM]	IC50 (SW480 (G12V) cells) [µM]	IC50 (SW48 (wt) cells) [µM]	IC50 (H23 cells) [µM]	IC50 (H358 (G12C) cells) [µM]	Effect on KRAS Protein Degradation, H647, 3 μM (KRAS protein [1])	Effect on KRAS Protein Degradation, HEK293, 3 μM (KRAS protein [2])	inhibition at 1 µM (Molm-13 cells) [%]	inhibition at 3 µM (Molm-13 cells) [%]	Effect on KRAS Protein Degradation, AsPC-1, 3 μM (KRAS protein [3])	Effect on KRAS Protein Degradation, AsPC-1, 5 μM (KRAS protein [3])	also measured
Cc1nn2c(N3CCN(CCO)CC3)cc(-c3cccc(CCCCCCCN4CCC(Nc5cccc(NC6CCC(=O)NC6=O)c5)CC4)c3)nc2c1-c1ccccc1 (centres unmarked) [Compound A1, 3-((3-((1-(7-(3-(7-(4-(2-Hydroxyethyl)piperazin-1-yl)-2-methyl-3-phenyl-pyrazolo[1,5-a]pyrimidin-5-yl)phenyl)heptyl)piperidin-4-yl)amino)phenyl)amino)piperidine-2,6-dione]	0.43	0.4	0.54	0.81	0.9	–	–	–	–	–	–	–
Cc1nn2c(N3CCN(CCO)CC3)cc(-c3cccc(CCCCCN4CCN(C(=O)CNc5cccc(C6CCC(=O)NC6=O)c5)CC4)c3)nc2c1-c1ccccc1 (centres unmarked) [Compound B5, 3-(3-((2-(4-(5-(3-(7-(4-(2-hydroxyethyl)piperazin-1-yl)-2-methyl-3-phenyl-pyrazolo[1,5-a]pyrimidin-5-yl)phenyl)pentyl)piperazin-1-yl)-2-oxoethyl)amino)phenyl)-piperidine-2,6-dione]	0.31	0.42	0.45	0.83	0.52	D (a percentage degradation value of less than 10%)	–	–	–	–	–	Effect on KRAS Protein Degradation, H647, 5 μM (KRAS protein [1]): A (a percentage degradation value of no less than 50%)
Cc1nn2c(N3CCN(CCO)CC3)cc(-c3cccc(CCCCCCCN4CCN(C(=O)COc5cccc(N6CCC(=O)NC6=O)c5)CC4)c3)nc2c1-c1ccccc1 [Compound C2, 1-(3-(2-(4-(7-(3-(7-(4-(2-Hydroxyethyl)piperazin-1-yl)-2-methyl-3-phenyl-pyrazolo[1,5-a]pyrimidin-5-yl)phenyl)heptyl)piperazin-1-yl)-2-oxoethoxy)phenyl)dihydro-pyrimidine-2,4(1H,3H)-dione]	–	–	–	–	–	–	B (a percentage degradation value of less than 50% and no less than 25%)	–	–	–	–	–
Cc1nn2c(N3CCN(CCO)CC3)cc(-c3cccc(CCCN4CCN(C(=O)CNc5ccc6c(C7CCC(=O)NC7=O)nn(C)c6c5)CC4)c3)nc2c1-c1ccccc1 (centres unmarked) [Compound D1, 3-(6-((2-(4-(3-(3-(7-(4-(2-Hydroxyethyl)piperazin-1-yl)-2-methyl-3-phenyl-pyrazolo[1,5-a]pyrimidin-5-yl)phenyl)propyl)piperazin-1-yl)-2-oxoethyl)amino)-1-methyl-1H-indazol-3-yl)piperidine-2,6-dione]	–	–	–	–	–	–	–	24	98	–	–	–
Cc1nn2c(N3CCN(CCO)CC3)cc(-c3cccc(CCCCCN4CCN(C(=O)CNc5cccc6c(C7CCC(=O)NC7=O)nn(C)c56)CC4)c3)nc2c1-c1ccccc1 (centres unmarked) [Compound D5, 3-(7-((2-(4-(5-(3-(7-(4-(2-hydroxyethyl)piperazin-1-yl)-2-methyl-3-phenyl-pyrazolo[1,5-a]pyrimidin-5-yl)phenyl)pentyl)piperazin-1-yl)-2-oxoethyl)amino)-1-methyl-1H-indazol-3-yl)piperidine-2,6-dione]	0.27	0.42	0.5	0.95	0.49	–	–	–	–	–	–	–
Cc1nn2c(N3CCN(CCO)CC3)cc(-c3ccccc3)nc2c1-c1cccc(CCCN2CCN(C(=O)CNc3cccc4c(N5CCC(=O)NC5=O)nn(C)c34)CC2)c1 [Compound D16, 1-(7-((2-(4-(3-(3-(7-(4-(2-Hydroxyethyl)piperazin-1-yl)-2-methyl-5-phenyl-pyrazolo[1,5-a]pyrimidin-3-yl)phenyl)propyl)piperazin-1-yl)-2-oxoethyl)amino)-1-methyl-1H-indazol-3-yl)dihydropyrimidine-2,4(1H,3H)-dione]	–	–	–	–	–	–	C (a percentage degradation value of less than 25% and no less than 10%)	–	–	C (a percentage degradation value of less than 25% and no less than 10%)	D (a percentage degradation value of less than 10%)	Effect on KRAS Protein Degradation, HEK293, 5 μM (KRAS protein [2]): C (a percentage degradation value of less than 25% and no less than 10%)
Cc1nn2c(N3CCN(CCO)CC3)cc(-c3ccccc3)nc2c1-c1cccc(CCCCCN2CCN(C(=O)CNc3cccc4c(N5CCC(=O)NC5=O)nn(C)c34)CC2)c1 [Compound D17, 1-(7-((2-(4-(5-(3-(7-(4-(2-hydroxyethyl)piperazin-1-yl)-2-methyl-5-phenyl-pyrazolo[1,5-a]pyrimidin-3-yl)phenyl)pentyl)piperazin-1-yl)-2-oxoethyl)amino)-1-methyl-1H-indazol-3-yl)dihydropyrimidine-2,4(1H,3H)-dione]	–	–	–	–	–	C (a percentage degradation value of less than 25% and no less than 10%)	C (a percentage degradation value of less than 25% and no less than 10%)	34	99	B (a percentage degradation value of less than 50% and no less than 25%)	C (a percentage degradation value of less than 25% and no less than 10%)	Effect on KRAS Protein Degradation, HEK293, 5 μM (KRAS protein [2]): C (a percentage degradation value of less than 25% and no less than 10%)
Cc1nn2c(N3CCN(CCO)CC3)cc(-c3ccccc3)nc2c1-c1cccc(CCCCCCCN2CCN(C(=O)CNc3cccc4c(N5CCC(=O)NC5=O)nn(C)c34)CC2)c1 [Compound D18, 1-(7-((2-(4-(7-(3-(7-(4-(2-hydroxyethyl)piperazin-1-yl)-2-methyl-5-phenyl-pyrazolo[1,5-a]pyrimidin-3-yl)phenyl)heptyl)piperazin-1-yl)-2-oxoethyl)amino)-1-methyl-1H-indazol-3-yl)dihydropyrimidine-2,4(1H,3H)-dione]	–	–	–	–	–	D (a percentage degradation value of less than 10%)	–	14	95	B (a percentage degradation value of less than 50% and no less than 25%)	C (a percentage degradation value of less than 25% and no less than 10%)	Effect on KRAS Protein Degradation, H647, 5 μM (KRAS protein [1]): C (a percentage degradation value of less than 25% and no less than 10%)
Cc1nn2c(N3CCN(CCO)CC3)cc(-c3ccccc3)nc2c1-c1ccccc1 [Compound T1, 2-(4-(2-methyl-3,5-diphenylpyrazolo[1,5-a]pyrimidin-7-yl)piperazin-1-yl)ethan-1-ol, reference compound]	1.3	0.7	1.9	2.5	2.4	–	–	0	–	–	–	inhibition at 10 µM (Molm-13 cells; compound at 10 μM): 99%
